Measurements reported in ChEMBL document CHEMBL1144359, “Synthesis and antitumor activity of the hexacyclic camptothecin derivatives” (Bioorg Med Chem Lett, 2005).

How the values were obtained:
[1] = In-vitro inhibitory concentration for human tumor HCT116 cell-line was determined using MTT assay after 3 days of incubation; assay type: functional, cell-based; conditions: HCT-116, 72 h
[2] = In-vitro inhibitory concentration for human tumor HELA cell-line was determined using MTT assay after 3 days of incubation; assay type: functional, cell-based; conditions: 72 h
[3] = tested on: HL-60; test: In-vitro inhibitory concentration for human tumor HL60 cell-line was determined using […] assay after 3 days of incubation; assay type: functional, cell-based; conditions: HL-60, 72 h
[4] = tested on: Bel-7402; test: In-vitro inhibitory concentration for human tumor BEL-7402 cell-line was determined using MTT assay after 3 days of incubation; assay type: functional, cell-based; conditions: Bel-7402, 72 h
[5] = Lethal toxicity in mouse with tumor sarcoma-180 after intraperitoneal (i.p.) injection at a dose of 0.5 mg/Kg of total 8 tested; conditions: in vivo, ip
[6] = Lethal toxicity in mouse with tumor sarcoma-180 after intraperitoneal (i.p.) injection at a dose of 1.0 mg/Kg of total 8 tested; conditions: in vivo, ip
[7] = tested on: Mus musculus; test: Percent body weight change in mouse with tumor sarcoma-180 after intraperitoneal (i.p.) injection at a dose of 1 mg/Kg; assay type: functional
[8] = tested on: Mus musculus; test: Average tumor weight in mouse with tumor sarcoma-180 after intraperitoneal (i.p.) injection at a dose of 1 mg/Kg; assay type: functional
[9] = tested on: Mus musculus; test: Average tumor weight in mouse with tumor sarcoma-180 after intraperitoneal (i.p.) injection at a dose of 0.5 mg/Kg; assay type: functional
[10] = tested on: Mus musculus; test: Percent body weight change in mouse with tumor sarcoma-180 after intraperitoneal (i.p.) injection at a dose of 0.5 mg/Kg; assay type: functional
[11] = tested on: Mus musculus; test: Percent tumor-weight inhibition in mouse with tumor sarcoma-180 after intraperitoneal (i.p.) injection at a dose of 1 mg/Kg; assay type: functional
[12] = tested on: Mus musculus; test: Percent tumor-weight inhibition in mouse with tumor sarcoma-180 after intraperitoneal (i.p.) injection at a dose of 0.5 mg/Kg; assay type: functional
[13] = Lethal toxicity in mouse with tumor sarcoma-180 after intraperitoneal (i.p.) injection at a dose of 2.5 mg/Kg of total 8 tested; conditions: in vivo, ip
[14] = Lethal toxicity in mouse with tumor sarcoma-180 after intraperitoneal (i.p.) injection at a dose of 5.0 mg/Kg of total 8 tested; conditions: in vivo, ip
[15] = tested on: Mus musculus; test: Percent body weight change in mouse with tumor sarcoma-180 after intraperitoneal (i.p.) injection at a dose of 5 mg/Kg; assay type: functional
[16] = tested on: Mus musculus; test: Average tumor weight in mouse with tumor sarcoma-180 after intraperitoneal (i.p.) injection at a dose of 5 mg/Kg; assay type: functional
[17] = tested on: Mus musculus; test: Average tumor weight in mouse with tumor sarcoma-180 after intraperitoneal (i.p.) injection at a dose of 2.5 mg/Kg; assay type: functional
[18] = tested on: Mus musculus; test: Percent tumor-weight inhibition in mouse with tumor sarcoma-180 after intraperitoneal (i.p.) injection at a dose of 5 mg/Kg; assay type: functional
[19] = tested on: Mus musculus; test: Percent tumor-weight inhibition in mouse with tumor sarcoma-180 after intraperitoneal (i.p.) injection at a dose of 2.5 mg/Kg; assay type: functional
[20] = tested on: Mus musculus; test: Percent body weight change in mouse with tumor sarcoma-180 after intraperitoneal (i.p.) injection at a dose of 2.5 mg/Kg; assay type: functional
[21] = Lethal toxicity in mouse with tumor sarcoma-180 after intraperitoneal (i.p.) injection at a dose of 75 mg/Kg of total 10 tested; conditions: in vivo, ip
[22] = tested on: Mus musculus; test: Average tumor weight in mouse with tumor sarcoma-180 after intraperitoneal (i.p.) injection at a dose of 75 mg/Kg; assay type: functional
[23] = tested on: Mus musculus; test: Percent body weight change in mouse with tumor sarcoma-180 after intraperitoneal (i.p.) injection at a dose of 75 mg/Kg; assay type: functional
[24] = tested on: Mus musculus; test: Percent tumor-weight inhibition in mouse with tumor sarcoma-180 after intraperitoneal (i.p.) injection at a dose of 75 mg/Kg; assay type: functional
[25] = Lethal toxicity in mouse with tumor sarcoma-180 after intraperitoneal (i.p.) injection at a dose of 40 mg/Kg of total 8 tested; conditions: in vivo, ip
[26] = tested on: Mus musculus; test: Average tumor weight in mouse with tumor sarcoma-180 after intraperitoneal (i.p.) injection at a dose of 40 mg/Kg; assay type: functional
[27] = tested on: Mus musculus; test: Percent body weight change in mouse with tumor sarcoma-180 after intraperitoneal (i.p.) injection at a dose of 40 mg/Kg; assay type: functional
[28] = tested on: Mus musculus; test: Percent tumor-weight inhibition in mouse with tumor sarcoma-180 after intraperitoneal (i.p.) injection at a dose of 40 mg/Kg; assay type: functional

Structure (SMILES) | IC50 [1] | IC50 [2] | IC50 [3] | IC50 [4] | further results
CCc1c2c(nc3ccc4c(c13)CC(CO)O4)-c1cc3c(c(=O)n1C2)COC(=O)[C@]3(O)CC (some centres not stated) | 3.8 nM | 23 nM | 7.1 nM | 7.8 nM | –
CC[C@@]1(O)C(=O)OCc2c1cc1n(c2=O)Cc2cc3c(ccc4occc43)nc2-1 | 1.6 nM | 15 nM | 3 nM | 1.6 nM | No. of mice dead [5]: 0; No. of mice dead [6]: 0; BWC [7]: -34%; TW [8]: 0.03; TW [9]: 0.23; BWC [10]: 26%; TWI [11]: 98%; TWI [12]: 85%
CCc1c2c(nc3ccc4c(c13)CC(C)O4)-c1cc3c(c(=O)n1C2)COC(=O)[C@]3(O)CC (some centres not stated) | 2.6 nM | 19 nM | 4.9 nM | 7.5 nM | –
CCc1c2c(nc3ccc4occc4c13)-c1cc3c(c(=O)n1C2)COC(=O)[C@]3(O)CC | 1.7 nM | 2.3 nM | 0.28 nM | 2.6 nM | –
CC[C@@]1(O)C(=O)OCc2c1cc1n(c2=O)Cc2cc3c4c(ccc3nc2-1)OC(O)C4 (some centres not stated) | 3.2 nM | – | 8.4 nM | 2.6 nM | No. of mice dead [13]: 0; No. of mice dead [14]: 0; BWC [15]: -31%; TW [16]: 0.05; TW [17]: 0.45; TWI [18]: 97%; TWI [19]: 70%; BWC [20]: 5%
CCc1c2c(nc3ccc4c(c13)CC(O)O4)-c1cc3c(c(=O)n1C2)COC(=O)[C@]3(O)CC (some centres not stated) | 1.4 nM | 20 nM | 4.2 nM | 4.4 nM | –
CC[C@@]1(O)C(=O)OCc2c1cc1n(c2=O)Cc2cc3c4c(ccc3nc2-1)OC(COC(C)=O)C4 (some centres not stated) | 4.3 nM | 11 nM | 11 nM | 15 nM | –
CCc1c2c(nc3ccc4c(c13)CC(COC(C)=O)O4)-c1cc3c(c(=O)n1C2)COC(=O)[C@]3(O)CC (some centres not stated) | 0.52 nM | 14 nM | 9.1 nM | 11 nM | –
CC[C@@]1(O)C(=O)OCc2c1cc1n(c2=O)Cc2cc3c4c(ccc3nc2-1)OC(CO)C4 (some centres not stated) | 2.6 nM | 25 nM | 8.7 nM | 19 nM | –
CC[C@@]1(O)C(=O)OCc2c1cc1n(c2=O)Cc2cc3c4c(ccc3nc2-1)OC(C)C4 (some centres not stated) | 4.9 nM | 10 nM | 3.1 nM | 7.4 nM | –
CCc1c2c(nc3ccc(O)cc13)-c1cc3c(c(=O)n1C2)COC(=O)[C@]3(O)CC [7-ETHYL-10-HYDROXYCAMPTOTHECIN] | 3.3 nM | 22 nM | 19 nM | 13 nM | –
O=c1[nH]cc(F)c(=O)[nH]1 [FLUOROURACIL] | – | – | – | – | No. of mice dead [21]: 0; TW [22]: 0.22; BWC [23]: 31%; TWI [24]: 86%
CCc1c2c(nc3ccc(OC(=O)N4CCC(N5CCCCC5)CC4)cc13)-c1cc3c(c(=O)n1C2)COC(=O)[C@]3(O)CC [IRINOTECAN] | – | – | – | – | No. of mice dead [25]: 0; TW [26]: 0.01; BWC [27]: -28%; TWI [28]: 99.4%
